From patent US4761477A (priority 1984, dated 1988) come the findings set out here.

Read-outs that look alike come from different tables or passages of the source.

One series can be described thus: Solubility in water. The format is physicochemical.
Series [1] has as its system adenylate cyclase. Nature of the series: Inhibition of adenylate cyclase activity of intestinal epithetial cells. As to conditions: 200 nM, mice. Type of series: biochemical. The procedure:
(§1) At 200 nM concentration, 13-propylberberin bisulfate inhibits about 50% of adenylate cyclase activity of intestinal epithetial cells or splenic lymphocytes in mice.

The test system of the next series is cholera toxin. Type of series: in vivo, SPF male Wister rats. As to conditions: secreta measured after 5 hours, rats.
A short description of series [2]: Stability: test compounds heated at 100° C. for 8 hours. Type of series: physicochemical. As to conditions: for stability (in words): compared with the conventionally-known halides; for Changes in appearance / Percent remainder (%): heated at 100° C. for 8 hours; for Percent remainder (%): 480 min. The procedure: Test compounds were heated at 100° C. for 8 hours. Changes in their appearance and their percent remainders were studied.

For series [3], the system named is adenylate cyclase. In words: Inhibition of adenylate cyclase activity of splenic lymphocytes. The format is biochemical. As to conditions: 200 nM, mice. The procedure: as §1

For the molecule `CCCc1c2[n+](cc3c(OC)c(OC)ccc13)CCc1cc3c(cc1-2)OCO3` [13-Propylberberine bisulfate, 13-propylberberine bisulfate], the results for the Solubility result in the series “Solubility in water” and in “Solubility in water” (listed as 13-propylberberine sulfate) were “soluble” and “readily soluble in water”, respectively. The “inhibition of adenylate cyclase activity” value with adenylate cyclase [1] and in the series with adenylate cyclase [3] was “about 50%” each time. The “Inhibition rate (%)” value is given as 13.0% with cholera toxin (0.5 mg/kg injected into ligated tract with 20 μg cholera toxin) and 40.0% in the series with cholera toxin (2 mg/kg injected into ligated tract with 20 μg cholera toxin). For the same molecule, the “stability (in words)” value in series [2] is reported as “extremely stable”. Moreover, the Changes in appearance entry in series [2] is on record as “no changes”. The “Percent remainder (%)” value in series [2] came out at 100.0%.

In the case of `CCCc1c2[n+](cc3c(OC)c(OC)ccc13)CCc1cc3c(cc1-2)OCO3` [13-Propylberberine bromide, 13-propylberberine bromide, reference compound], in series [2], the “Percent remainder (%)” value was determined as 57.0%.

With `CCCc1c2[n+](cc3c(OC)c(OC)ccc13)CCc1cc3c(cc1-2)OCO3` [13-Propylberberine chloride, reference compound], the “Percent remainder (%)” value in series [2] is reported as 48.7%.

For the molecule `CCCc1c2[n+](cc3c(OC)c(OC)ccc13)CCc1cc3c(cc1-2)OCO3` [13-Propylberberine iodide, reference compound], the “Percent remainder (%)” value in series [2] came to 52.1%.

For `CCCc1c2[n+](cc3c(OC)c(OC)ccc13)CCc1cc3c(cc1-2)OCO3` [13-Propylberberine primary phosphate, 13-propylberberine primary phosphate], in the series “Solubility in water”, the Solubility entry was “soluble”. In addition, in “Solubility in water” (listed as 13-propylberberine phosphate), the Solubility result was “readily soluble in water”. Also, in series [2], the “stability (in words)” value is “extremely stable”, the Changes in appearance entry was “no changes” and the “Percent remainder (%)” value is on record as 99.8%.

With `COc1ccc2cc3[n+](cc2c1OC)CCc1cc2c(cc1-3)OCO2` [Berberine chloride, reference compound], the “Inhibition rate (%)” value with cholera toxin (20 mg/kg injected into ligated tract with 20 μg cholera toxin) is reported as 8.0%.
